Laboratory results published in patent US8188078B2 (Sanofi-Aventis, priority 2007, dated 2012).

Columns and labels:
c-MET = biological target: T1, c-MET (Homo sapiens, UniProt P08581); assay: Test A: HTRF Met test in 96-well format; format: biochemical
T1 construct: The recombinant DNA His-Tev-MET (956-1390) in pFastBac(Invitrogen); His (N, cleaved yes); Tev (TEV protease site) (N, cleaved yes); made in house; host or cells: SF21 insect cells (baculovirus, pFastBac)
Summary of the method: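 Percent inhibition was calculated from the HTRF 665/620 ratio, using Eu-cryptate anti-phosphotyrosine PT66 plus streptavidin-XL added with EDTA and read after 2 h. The reaction ran 10 min at room temperature: 5 nM tag-cleaved MET (956–1390), 10 µM ATP, 1 µg/ml poly-GAT, and compound from 0.17 nM to 10 µM in 3% DMSO.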

MKN45 cells = assay: Test D: cellular proliferation by 14C-thymidine pulse, MKN45 cells; format: cell-based; settings: Homo sapiens, MKN-45, cellular proliferation by 14C-thymidine pulse; cell line not stated (HCT116 or MKN45)
Summary of the method: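 MKN45 cells (7500/well, RPMI + 10% foetal calf serum) treated with 10 concentrations, 10000 to 0.3 nM in 3-fold steps, duplicate. 14C-thymidine (0.1 μCi/well) added at 72 h; incorporation counted after 24 h pulse, 96 h total treatment.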

RON = RON (Homo sapiens, UniProt Q04912); assay: Test B: HTRF RON test in 96-well format; format: biochemical
RON, sequence (Q04912 25-1400): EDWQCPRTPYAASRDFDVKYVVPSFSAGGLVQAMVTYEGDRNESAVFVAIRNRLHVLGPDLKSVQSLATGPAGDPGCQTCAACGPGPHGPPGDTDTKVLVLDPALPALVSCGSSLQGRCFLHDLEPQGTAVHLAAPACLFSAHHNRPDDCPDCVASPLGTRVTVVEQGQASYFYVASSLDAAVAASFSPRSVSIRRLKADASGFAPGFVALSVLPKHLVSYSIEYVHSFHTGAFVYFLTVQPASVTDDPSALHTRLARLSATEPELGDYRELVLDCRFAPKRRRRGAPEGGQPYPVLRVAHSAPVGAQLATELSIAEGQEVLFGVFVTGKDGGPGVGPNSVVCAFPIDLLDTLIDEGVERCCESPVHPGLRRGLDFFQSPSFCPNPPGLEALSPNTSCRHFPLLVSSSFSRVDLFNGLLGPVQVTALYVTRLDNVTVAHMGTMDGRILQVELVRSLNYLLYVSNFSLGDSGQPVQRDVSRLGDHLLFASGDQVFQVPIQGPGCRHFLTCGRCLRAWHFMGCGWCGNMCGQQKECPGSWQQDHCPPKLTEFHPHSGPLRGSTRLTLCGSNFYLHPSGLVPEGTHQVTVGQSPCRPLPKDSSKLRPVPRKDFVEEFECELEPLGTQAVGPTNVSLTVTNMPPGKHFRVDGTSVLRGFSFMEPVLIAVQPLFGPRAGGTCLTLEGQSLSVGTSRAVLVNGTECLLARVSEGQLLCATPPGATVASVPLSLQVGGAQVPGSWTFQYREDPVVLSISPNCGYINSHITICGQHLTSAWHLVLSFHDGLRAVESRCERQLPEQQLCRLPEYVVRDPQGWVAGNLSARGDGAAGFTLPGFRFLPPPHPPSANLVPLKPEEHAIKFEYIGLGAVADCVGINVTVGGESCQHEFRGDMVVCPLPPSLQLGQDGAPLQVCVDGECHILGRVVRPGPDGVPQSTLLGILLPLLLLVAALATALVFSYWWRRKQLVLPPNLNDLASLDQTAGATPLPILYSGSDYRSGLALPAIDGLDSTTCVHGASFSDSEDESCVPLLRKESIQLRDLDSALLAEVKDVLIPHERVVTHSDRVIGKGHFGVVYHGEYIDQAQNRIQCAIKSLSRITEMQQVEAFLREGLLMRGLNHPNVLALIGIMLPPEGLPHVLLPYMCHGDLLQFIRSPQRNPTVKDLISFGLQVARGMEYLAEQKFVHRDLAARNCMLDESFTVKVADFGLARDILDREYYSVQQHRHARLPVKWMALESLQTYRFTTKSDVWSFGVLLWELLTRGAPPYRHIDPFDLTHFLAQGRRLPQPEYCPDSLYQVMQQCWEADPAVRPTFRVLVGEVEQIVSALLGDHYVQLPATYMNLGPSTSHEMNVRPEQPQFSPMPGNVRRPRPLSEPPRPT
Summary of the method: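 RON 5 nM pre-incubated 30 min at RT with compound (0.17 nM–10 μM final, 3% DMSO) in MOPS 10 mM pH 7, DTT, Tween 20. Reaction with biotinylated poly-(GAT) 1 μg/ml, ATP 10 μM, MgCl2 5 mM, 30 min RT. Eu-anti-pTyr/streptavidin-XL665 HTRF, 665/620 ratio gives % inhibition, IC50.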

T1 sequence (P08581 956-1390): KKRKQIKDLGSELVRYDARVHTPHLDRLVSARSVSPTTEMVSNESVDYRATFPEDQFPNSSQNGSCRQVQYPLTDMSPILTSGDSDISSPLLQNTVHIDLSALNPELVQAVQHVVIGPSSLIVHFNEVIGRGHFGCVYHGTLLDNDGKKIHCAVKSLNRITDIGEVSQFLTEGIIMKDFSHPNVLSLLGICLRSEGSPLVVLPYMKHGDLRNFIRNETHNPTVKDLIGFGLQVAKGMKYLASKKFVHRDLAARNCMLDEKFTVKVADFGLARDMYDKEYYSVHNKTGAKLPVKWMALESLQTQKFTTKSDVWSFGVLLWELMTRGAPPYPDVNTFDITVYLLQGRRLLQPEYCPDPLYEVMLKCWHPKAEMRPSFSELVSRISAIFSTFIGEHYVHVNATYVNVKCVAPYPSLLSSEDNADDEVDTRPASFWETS

Row | SMILES | IC50 (c-MET) [nM] | IC50 (MKN45 cells) [nM] | IC50 (RON) [nM]
1 | CC(Oc1ccc2nc(NC(=O)NCCC3CCCN3C)sc2c1)c1c(F)ccc(Cl)c1Cl (stereo not drawn) [Example 110, 1-{6-[1-(2,3-dichloro-6-fluorophenyl)ethoxy]-1,3-benzothiazol-2-yl}-3-[2-(1-methylpyrrolidin-2-yl)ethyl]urea] | < 100 | 500 to 10000 | < 500
2 | CC(Oc1cc2sc(NC(=O)NCCN3CCOCC3)nc2cc1F)c1c(F)ccc(Cl)c1Cl (stereo not drawn) [Example 111, 1-{6-[1-(2,3-dichloro-6-fluorophenyl)ethoxy]-5-fluoro-1,3-benzothiazol-2-yl}-3-[2-(morpholin-4-yl)ethyl]urea] | < 100 | 500 to 10000 | 500 to 10000
3 | CC(Oc1cc2sc(NC(=O)NCCCN3CCCC3=O)nc2cc1F)c1c(F)ccc(Cl)c1Cl (stereo not drawn) [Example 114, 1-{6-[1-(2,3-dichloro-6-fluorophenyl)ethoxy]-5-fluoro-1,3-benzothiazol-2-yl}-3-[3-(2-oxopyrrolidin-1-yl)propyl]urea] | < 100 | 500 to 10000 | < 500
4 | CC(Oc1cc2sc(NC(=O)NCCN3CCN(C)CC3)nc2cc1F)c1c(F)ccc(Cl)c1Cl (stereo not drawn) [Example 115, 1-{6-[1-(2,3-dichloro-6-fluorophenyl)ethoxy]-5-fluoro-1,3-benzothiazol-2-yl}-3-[2-(4-methylpiperazin-1-yl)ethyl]urea] | < 100 | < 500 | < 500
5 | CC(Oc1cc2sc(NC(=O)NCCN3CCCC3)nc2cc1F)c1c(F)ccc(Cl)c1Cl (stereo not drawn) [Example 118, 1-{6-[1-(2,3-dichloro-6-fluorophenyl)ethoxy]-5-fluoro-1,3-benzothiazol-2-yl}-3-[2-(pyrrolidin-1-yl)ethyl]urea] | < 100 | 500 to 10000 | < 500
6 | CC(Oc1ccc2nc(NC(=O)NCCN3CCCC3)sc2c1)c1c(F)ccc(Cl)c1Cl (stereo not drawn) [Example 120, 1-{6-[1-(2,3-dichloro-6-fluorophenyl)ethoxy]-1,3-benzothiazol-2-yl}-3-[2-(pyrrolidin-1-yl)ethyl]urea] | < 100 | < 500 | < 500
7 | Cc1ccc(F)c(C(C)Oc2ccc3nc(NC(=O)NCCN4CCOCC4)sc3c2)c1F (stereo not drawn) [Example 123, 1-{6-[1-(2,6-difluoro-3-methylphenyl)ethoxy]-1,3-benzothiazol-2-yl}-3-[2-(morpholin-4-yl)ethyl]urea] | < 100 | 500 to 10000 | 500 to 10000
8 | CC(Oc1ccc2nc(NC(=O)NCCN3CCOCC3)sc2c1)c1c(Cl)ccc(Cl)c1Cl (stereo not drawn) [Example 124, 1-[2-(morpholin-4-yl)ethyl]-3-{6-[1-(2,3,6-trichlorophenyl)ethoxy]-1,3-benzothiazol-2-yl}urea] | < 100 | 500 to 10000 | 500 to 10000
9 | CC(Oc1ccc2nc(NC(=O)NCCN3CCCC3)sc2c1)c1c(Cl)ccc(Cl)c1Cl (stereo not drawn) [Example 125, 1-[2-(pyrrolidin-1-yl)ethyl]-3-{6-[1-(2,3,6-trichlorophenyl)ethoxy]-1,3-benzothiazol-2-yl}urea] | < 100 | 500 to 10000 | 500 to 10000
10 | CC(Oc1cc2sc(NC(=O)NCCN3CCCC3)nc2cc1F)c1c(Cl)ccc(Cl)c1Cl (stereo not drawn) [Example 126, 1-{5-fluoro-6-[1-(2,3,6-trichlorophenyl)ethoxy]-1,3-benzothiazol-2-yl}-3-[2-(pyrrolidin-1-yl)ethyl]urea] | < 100 | 500 to 10000 | 500 to 10000
11 | CNCCCNC(=O)Nc1nc2cc(F)c(OC(C)c3c(Cl)ccc(F)c3Cl)cc2s1 (stereo not drawn) [Example 127, 1-{6-[1-(2,6-dichloro-3-fluorophenyl)ethoxy]-5-fluoro-1,3-benzothiazol-2-yl}-3-[3-(methylamino)propyl]urea] | < 100 | 500 to 10000 | 500 to 10000
12 | CC(Oc1cc2sc(NC(=O)NCCCN)nc2cc1F)c1c(Cl)ccc(F)c1Cl (stereo not drawn) [Example 128, 1-(3-aminopropyl)-3-{6-[1-(2,6-dichloro-3-fluorophenyl)ethoxy]-5-fluoro-1,3-benzothiazol-2-yl}urea] | < 100 | 500 to 10000 | 500 to 10000
